Data reported in PMC10620772, “Design, synthesis, and biological evaluation of new pyrimidine-5-carbonitrile derivatives as novel anti-cancer, dual EGFR^WT/COX-2 inhibitors with docking studies” (RSC Advances, 2023).
Where “and” joins values, the source holds several entries; their conditions need not be identical. Equal values may be shown once.

Key:
COX-2 = molecular target: T1, COX-2 (Homo sapiens, UniProt P35354); experiment: COX-2 inhibitor screening kit (Biovision); type: biochemical; details: for IC50: means ± SD of three experiments, read-out: COX2 IC50
T1 construct: purchased Biovision K547
T1 sequence (P35354 18-604): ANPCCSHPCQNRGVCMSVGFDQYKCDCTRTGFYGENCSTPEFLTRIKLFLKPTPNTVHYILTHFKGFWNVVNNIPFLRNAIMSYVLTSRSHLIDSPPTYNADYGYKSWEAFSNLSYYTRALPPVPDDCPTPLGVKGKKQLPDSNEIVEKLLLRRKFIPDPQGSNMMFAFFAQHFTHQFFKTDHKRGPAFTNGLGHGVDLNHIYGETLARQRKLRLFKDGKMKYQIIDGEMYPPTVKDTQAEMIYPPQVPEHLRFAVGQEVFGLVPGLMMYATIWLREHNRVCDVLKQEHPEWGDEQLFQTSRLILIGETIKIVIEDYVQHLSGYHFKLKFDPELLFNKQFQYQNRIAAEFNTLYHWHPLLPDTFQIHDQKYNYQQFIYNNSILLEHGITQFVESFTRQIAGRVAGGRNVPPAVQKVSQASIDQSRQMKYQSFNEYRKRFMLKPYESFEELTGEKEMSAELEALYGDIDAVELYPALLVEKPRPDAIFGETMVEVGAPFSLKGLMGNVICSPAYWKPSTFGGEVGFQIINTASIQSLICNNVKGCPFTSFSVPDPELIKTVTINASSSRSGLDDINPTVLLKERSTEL
Protocol: (§1) The inhibitory activity of novel 4e & 4f against COX-1/COX-2 was evaluated by using Biovision COX-1/COX-2 Inhibitor Screening Kit (Catalog #: K548) and (Catalog #: K547), respectively.

renal cancer subpanel = experiment: NCI60 five-dose, subpanel VII; type: cell-based, human; details: for GI50: Homo sapiens, read-out: MG-MID (GI50); for GI50 / MG-MID (TGI): subpanel VII; for Selectivity index (GI50) / Selectivity index (TGI): full panel MG-MID / subpanel VII
From the text: (§2) (2) The molar concentration of the compound responsible for total growth inhibition, also known as total growth inhibition (TGI).
(§3) Regarding subpanel selectivity toward certain cancer type, the method of determining a compound's selectivity index is to divide the full panel MG-MID (μM) value by each single subpanel. Values above six indicate high selectivity against the subpanel; moderate selectivity is denoted by values between three and six. Conversely, compounds are termed nonselective if their selectivity is less than three.[30,37]

COX-1 = molecular target: T2, COX-1 (Ovis aries, UniProt P05979); experiment: COX-1 inhibitor screening kit (Biovision); type: biochemical; details: means ± SD of three experiments; read-out: COX1 IC50
T2 construct: purchased Biovision K548
T2 sequence (P05979 25-600): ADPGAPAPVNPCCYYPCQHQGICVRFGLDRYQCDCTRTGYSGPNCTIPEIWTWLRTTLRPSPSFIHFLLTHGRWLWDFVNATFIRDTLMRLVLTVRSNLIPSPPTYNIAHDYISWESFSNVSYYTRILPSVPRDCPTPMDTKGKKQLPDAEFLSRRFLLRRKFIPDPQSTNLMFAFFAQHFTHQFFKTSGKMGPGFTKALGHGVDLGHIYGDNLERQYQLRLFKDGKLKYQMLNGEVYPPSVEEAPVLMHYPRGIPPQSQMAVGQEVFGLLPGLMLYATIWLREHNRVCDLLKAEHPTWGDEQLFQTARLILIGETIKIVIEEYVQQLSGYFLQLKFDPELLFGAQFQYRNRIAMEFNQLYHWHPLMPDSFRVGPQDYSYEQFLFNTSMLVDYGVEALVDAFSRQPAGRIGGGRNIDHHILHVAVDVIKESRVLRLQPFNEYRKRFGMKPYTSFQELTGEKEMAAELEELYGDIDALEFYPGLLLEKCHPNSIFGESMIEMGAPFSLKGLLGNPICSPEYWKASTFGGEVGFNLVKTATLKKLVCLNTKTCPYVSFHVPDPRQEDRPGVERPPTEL
Protocol: as §1

ovarian cancer subpanel = experiment: NCI60 five-dose, subpanel VI; type: cell-based, human; details: for GI50: Homo sapiens, read-out: MG-MID (GI50); for GI50 / MG-MID (TGI): subpanel VI; for Selectivity index (GI50) / Selectivity index (TGI): full panel MG-MID / subpanel VI
From the text: as §2, §3

[1] = system: non-small cell lung cancer subpanel; experiment: NCI60 five-dose, subpanel II; type: cell-based, human; details: for GI50: Homo sapiens, read-out: MG-MID (GI50); for GI50 / MG-MID (TGI): subpanel II; for Selectivity index (GI50) / Selectivity index (TGI): full panel MG-MID / subpanel II
From the text: as §2, §3

prostate cancer subpanel = experiment: NCI60 five-dose, subpanel VIII; type: cell-based, human; details: for GI50: Homo sapiens, read-out: MG-MID (GI50); for GI50 / MG-MID (TGI): subpanel VIII; for Selectivity index (GI50) / Selectivity index (TGI): full panel MG-MID / subpanel VIII
From the text: as §2, §3

colon cancer subpanel = experiment: NCI60 five-dose, subpanel III; type: cell-based, human; details: for GI50: Homo sapiens, read-out: MG-MID (GI50); for GI50 / MG-MID (TGI): subpanel III; for Selectivity index (GI50) / Selectivity index (TGI): full panel MG-MID / subpanel III
From the text: as §2, §3

[2] = system: active caspase-3 in Colo 205 cells; experiment: Caspase-3 ELISA; type: cell-based, human; details: for Caspase 3: Colo_205, treated at IC50
From the text: Among the death proteases, the caspases family of cysteine-dependent aspartate-directed proteases is significant. There are multiple levels where caspase activation and activity are regulated.[43] Caspases are activated during apoptosis, which eventually results in cell death by deactivating a number of signals.[44] One of the crucial survival signals, EGFR, may be the target of caspase activation to ensure the completion of apoptosis.[45] Additionally, it has been reported that activating caspase-3 through COX-2 inhibition enhances apoptosis.[40] Therefore, the impact of the novel compounds on the level of caspase 3 was examined.
(1) Into the antibody coated wells add 100 μl of standard diluent buffer excepts wells wich detected to be the chromogen blank, then add 100 μl. […] (10) Decant liquid from wells then wash, (11) pipette 100 μl of chromogen substrate to all wells, The well fluid will start to become blue. (12) 30 minutes should be spent incubating at room temperature in the dark. (13) To each well, add 100 μl of stop solution. To mix, lightly tap the plate's edge. The well solution should transform from blue to yellow. (14) Read the absorbance of each well using a microtiter plate reader at 450 nm. (15) Draw the standard curve using a curve fitting program. (16) The standard curve can be used to determine the concentrations for unknown samples and controls.[55]

EGFR^WT = molecular target: T3, EGFR^WT (Homo sapiens, UniProt P00533); experiment: In vitro EGFR^WT inhibitory assay (BPS Bioscience kinase kit); type: biochemical; details: means ± SD of three experiments
T3 construct: purchased BPS Bioscience 40 321
T3 sequence (P00533 25-1210): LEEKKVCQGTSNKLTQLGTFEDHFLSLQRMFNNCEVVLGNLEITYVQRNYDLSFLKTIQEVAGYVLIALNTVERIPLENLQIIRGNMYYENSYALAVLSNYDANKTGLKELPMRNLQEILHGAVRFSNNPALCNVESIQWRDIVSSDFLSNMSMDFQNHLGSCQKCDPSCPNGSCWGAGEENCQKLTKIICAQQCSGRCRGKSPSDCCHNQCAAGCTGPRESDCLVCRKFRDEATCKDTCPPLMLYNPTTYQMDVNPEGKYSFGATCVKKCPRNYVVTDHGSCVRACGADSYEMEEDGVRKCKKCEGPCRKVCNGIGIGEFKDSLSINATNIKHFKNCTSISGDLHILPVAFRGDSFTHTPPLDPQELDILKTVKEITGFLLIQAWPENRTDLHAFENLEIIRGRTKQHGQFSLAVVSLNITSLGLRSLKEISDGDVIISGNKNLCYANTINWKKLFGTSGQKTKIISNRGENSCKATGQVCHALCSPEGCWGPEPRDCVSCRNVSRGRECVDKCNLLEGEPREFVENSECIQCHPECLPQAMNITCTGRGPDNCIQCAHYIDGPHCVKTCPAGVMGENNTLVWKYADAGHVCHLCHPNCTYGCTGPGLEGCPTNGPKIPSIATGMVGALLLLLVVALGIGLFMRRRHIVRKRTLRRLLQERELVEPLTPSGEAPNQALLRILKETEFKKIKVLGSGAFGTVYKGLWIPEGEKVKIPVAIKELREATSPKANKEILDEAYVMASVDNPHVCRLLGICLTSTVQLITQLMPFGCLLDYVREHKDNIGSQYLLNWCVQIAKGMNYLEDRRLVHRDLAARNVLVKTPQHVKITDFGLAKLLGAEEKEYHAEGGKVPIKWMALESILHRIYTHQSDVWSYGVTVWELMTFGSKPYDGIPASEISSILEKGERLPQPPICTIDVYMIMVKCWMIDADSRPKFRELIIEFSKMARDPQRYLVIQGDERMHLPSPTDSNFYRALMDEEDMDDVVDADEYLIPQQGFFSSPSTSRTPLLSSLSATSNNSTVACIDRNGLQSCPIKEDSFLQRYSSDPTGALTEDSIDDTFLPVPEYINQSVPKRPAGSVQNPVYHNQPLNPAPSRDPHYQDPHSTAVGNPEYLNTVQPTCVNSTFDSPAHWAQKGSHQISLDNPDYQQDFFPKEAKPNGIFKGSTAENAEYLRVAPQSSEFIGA
Protocol: (1) Prepare the mixture of N wells × (kinase assay buffer 6 μl, ATP1 μl, PTK substrate 1 μl and water 17 μl). to every well pipette the 25 μl. […] On the contrary, add 5 μl of inhibitor buffer to control and plank wells. (3) Pipette 20 μl of EGFR^WT to test and control wells, on the blank wells pipette 20 μl kinase assay buffer. Then incubate at R.T for 40 min. (4) end the incubation after 40 min by adding to every well 50 μl of Kinase-Glo Max reagent, and incubate 15 min. By measuring the ATP quantity after kinase reaction, the activity of kinase could be detected. (5) use microplate reader to measure the luminescence.[51]

Colo-205 cells = experiment: Annexin V-FITC apoptosis assay; type: cell-based, human; details: treated at IC50
From the text: The Annexin V-FITC/propidium iodide dual staining assay was used to assess the effect of compound (4e and 4f) on inducing apoptosis in Colo-205 cells. This assay allows for the identification of early stages of apoptosis before the loss of cell membrane integrity, allowing measurements of apoptotic death kinetics in relation to the cell cycle.
Cell Culture Unit, VACSERA, Cairo, Egypt, conducted an apoptosis investigation.
Centrifuge to collect cells, using binding buffer to resuspend cells. Pipette 5 μl of Annexine-V and 5 μl. Subsequently, incubate sample for 5 min. In R.T, dark condition. Detect Annexine V-FITC binding cells detected by FACSCaliber flow cytometer (Ex = 488 nm; Em = 530 nm) which indicate apoptotic cells. On the other side the PI stained cells detected by FL2 flow cytometer, which detect necrotic cells.[53,54]

Row | SMILES | SI (COX-2 over COX-1) (COX-2) | IC50 (COX-2) | GI50 (renal cancer subpanel) | Selectivity index (GI50) (renal cancer subpanel) | Selectivity index (TGI) (renal cancer subpanel) | MG-MID (TGI) (renal cancer subpanel) | IC50 (COX-1) | GI50 (ovarian cancer subpanel) | Selectivity index (GI50) (ovarian cancer subpanel) | Selectivity index (TGI) (ovarian cancer subpanel) | MG-MID (TGI) (ovarian cancer subpanel) | GI50 [1] | Selectivity index (GI50) [1] | Selectivity index (TGI) [1] | MG-MID (TGI) [1] | GI50 (prostate cancer subpanel) | Selectivity index (GI50) (prostate cancer subpanel) | Selectivity index (TGI) (prostate cancer subpanel) | MG-MID (TGI) (prostate cancer subpanel) | GI50 (colon cancer subpanel) | other results
1 | N#Cc1c(-c2ccc(F)cc2)nc(SCc2ccc(F)cc2)nc1N1CCNCC1 [4f, 2-((4-Fluorobenzyl)thio)-4-(4-fluorophenyl)-6-(piperazin-1-yl) pyrimidine-5-carbonitrile] | 6.01 | 5.26 µM | 23.2 µM | 0.57 | 0.94 | 28.11 µM | 31.6 ± 0.89 µM | 15 µM | 0.89 | 0.86 | 30.41 µM | 13.7 µM | 0.98 | 0.91 | 28.83 µM | 14.7 µM | 0.91 | 0.89 | 29.50 µM | 7 µM | Selectivity index (GI50) (colon cancer subpanel): 1.92; Selectivity index (TGI) (colon cancer subpanel): 1.54; MG-MID (TGI) (colon cancer subpanel): 17.15 µM; Caspase 3 fold vs control ([2]; Colo 205, treated at IC50): 8 fold and 7.88 fold; Caspase 3 [2]: 656.4 ± 13.1 pg·mL; IC50 (EGFR^WT): 0.23 µM and 0.235 µM; Apoptosis early (Colo-205 cells): 26.15%; Apoptosis late (Colo-205 cells): 12.71%; Apoptosis total (Colo-205 cells): 43.12%; Necrosis (Colo-205 cells): 4.26%
2 | N#Cc1c(-c2ccc(F)cc2)nc(SCc2ccccc2)nc1N1CCNCC1 [4e, 2-(Benzylthio)-4-(4-fluorophenyl)-6-(piperazin-1-yl) pyrimidine-5-carbonitrile] | 8.55 | 1.28 µM | 12.2 µM | 0.87 | 0.92 | 25.75 µM | 11 ± 0.31 µM | 13.2 µM | 0.81 | 0.83 | 28.35 µM | 11.2 µM | 0.95 | 0.92 | 25.67 µM | 13.4 µM | 0.79 | 0.86 | 27.40 µM | 5.1 µM | Selectivity index (GI50) (colon cancer subpanel): 2.09; Selectivity index (TGI) (colon cancer subpanel): 1.79; MG-MID (TGI) (colon cancer subpanel): 13.12 µM; Caspase 3 [2]: 808.9 ± 11.9 pg·mL; IC50 (EGFR^WT): 0.096 ± 0.004 µM; Apoptosis early (Colo-205 cells): 19.91%; Apoptosis late (Colo-205 cells): 25.22%; Apoptosis total (Colo-205 cells): 51.07%; Necrosis (Colo-205 cells): 5.94%
